Usually Ki stands for the dissociation constant of the complex between target and ligand, obtained from inhibition or displacement.

The target of experiment [1] is human dopamine D2 (Long form) receptor (Homo sapiens, UniProt P14416). Description: [3H]spiperone receptor binding assay, D2 (Long form) (CHO K1 membranes). An excerpt: (§1) A cell line expressing human dopamine D2 (Long form) receptors was purchased from Oregon Health Sciences University, Portland, Ore. The D2 receptor cDNA was subcloned into an expression vector, pRc/CMV. The plasmids were transfected by electroporation into CHO K1 cells. A single stable transfectant, resistant to the antibiotic G418, was isolated and selected for use in the binding studies. For D4 binding, CHO K1 cells stably transfected to express the human recombinant dopamine D4.2 receptor subtype, as described by Shih, et al., "The expression and functional characterization of human dopamine D4.2 receptor in CHO K1 cells," Soc. Neurosci., 1995;21(Part 1):621.
Sequence of human dopamine D2 (Long form) receptor (P14416 whole entry): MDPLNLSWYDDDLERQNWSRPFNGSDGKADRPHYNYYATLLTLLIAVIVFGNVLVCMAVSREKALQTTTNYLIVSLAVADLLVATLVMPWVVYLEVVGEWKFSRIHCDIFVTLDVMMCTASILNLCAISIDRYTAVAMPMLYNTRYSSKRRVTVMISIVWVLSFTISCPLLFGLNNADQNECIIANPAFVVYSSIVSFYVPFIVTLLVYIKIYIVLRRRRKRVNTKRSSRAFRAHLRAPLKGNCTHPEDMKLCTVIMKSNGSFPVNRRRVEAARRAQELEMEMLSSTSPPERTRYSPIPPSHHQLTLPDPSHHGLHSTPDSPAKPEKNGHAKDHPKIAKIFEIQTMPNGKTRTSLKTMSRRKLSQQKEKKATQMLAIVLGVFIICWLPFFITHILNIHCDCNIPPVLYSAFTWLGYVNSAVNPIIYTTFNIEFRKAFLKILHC
(§2) CHO K1 cells expressing either human D2 and D4.2 receptors were grown in 162 cm^2 culture flasks in F12 medium (Gibco Laboratories, Grand Island, N.Y.) supplemented with 10% fetal bovine serum (FBS, Hyclone, Logan, UT) in an atmosphere of 5% Co2 /95% air at 37° C. Cells were grown until confluent, after which growth medium was removed and replaced with 0.02% ethylene diamine tetracetate (EDTA) in a phosphate-buffered saline solution (Sigma Chemical Co; St. Louis, Mo.) and scraped from the flasks. The cells were centrifuged at about 1000×g for 10 minutes at […] and then resuspended in TEM buffer (25 mM Tris-HCL, pH 7.4, 5 mM EDTA, and 6 mM MgCl2) for D2 or the D4.2 buffer (50 mM Tris-HCl, pH 7.4, 5 mM EDTA, 1.5 mM CaCl2, 5 mM KCl, and 120 mM NaCl) and homogenized. The membranes were pelleted by centrifugation at 20,000×g at […] for 20 minutes. Then the pellets were resuspended in an appropriate buffer at 1 mL/flask and stored at -70° C. until used in the receptor binding assay.
After 60 minutes incubation at 25° C., the incubations were terminated by rapid filtration through Whatmann GF/B glass fibre filters (soaked for 1 hour in 0.5% polyethylenimine) on a -cell harvester, with three washes of 1 mL ice-cold buffer. Individual filter disks containing the bound ligand were placed in counting vials with 4 mL of scintillation fluid (Ready Gel, Beckman Instrument Inc, Fullerton, Calif.) and then counted in a Beckman LS-6800 liquid scintillation counter at an efficiency of 45%. Nonspecific binding was defined in presence of 1 mM of haloperidol.
(§3) Saturation and competition binding data were analyzed using an iterative nonlinear least-square curve-fitting Ligand program. […] Experimental compounds were made up as stock solutions in dimethyl sulfoxide (DMSO). […] Each observation was carried out in triplicate. To allow these calculations, Kd values were measured for the interaction of various ligands with the receptor. […]

The target of experiment [2] is T1, human recombinant dopamine D4.2 receptor (Homo sapiens, UniProt P21917, DEL265-296).
T1 construct: expressed in transfected cells
T1 sequence (P21917 with tags, fused parts or gaps DEL265-296): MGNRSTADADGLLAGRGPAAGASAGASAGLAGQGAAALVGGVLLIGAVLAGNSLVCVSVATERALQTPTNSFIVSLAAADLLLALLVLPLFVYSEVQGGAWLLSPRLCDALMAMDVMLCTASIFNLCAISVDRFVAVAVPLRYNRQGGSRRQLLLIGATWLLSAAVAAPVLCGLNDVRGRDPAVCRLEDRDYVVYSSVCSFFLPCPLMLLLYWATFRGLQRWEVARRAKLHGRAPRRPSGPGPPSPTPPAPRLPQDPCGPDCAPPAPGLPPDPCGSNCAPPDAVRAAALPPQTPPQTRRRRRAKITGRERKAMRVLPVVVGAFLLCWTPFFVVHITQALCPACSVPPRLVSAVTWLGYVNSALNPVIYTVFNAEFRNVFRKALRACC
Description: [3H]spiperone receptor binding assay, D4.2 (CHO K1 membranes). Particulars: [3H]spiperone 0.2 nM, human D4.2, CHO K1 membranes, 60 minutes at 25° C.
Description: as §1, with “Soc.” for “Soc. Neurosci., 1995;21(Part 1):621.”
as §2, with “Cells” for “CHO K1 cells expressing either human D2 and D4.2 receptors were grown in 162 cm^2 culture flasks in F12 medium (Gibco Laboratories, Grand Island, N.Y.) supplemented with 10% fetal bovine serum (FBS, Hyclone, Logan, UT) in an atmosphere of 5% Co2 /95% air at 37° C. Cells”
After 60 minutes incubation at 25° C., the incubations were terminated by rapid filtration through Whatmann GF/B glass fibre filters (soaked for 1 hour in 0.5% polyethylenimine) on a -cell harvester, with three washes of 1 mL ice-cold buffer. […] Nonspecific binding was defined in presence of 1 mM of haloperidol.
as §3

Where [3] appears, read: [3H]spiperone 0.2 nM, human D2 (Long form), CHO K1 membranes, 60 minutes at 25° C., read-out: D2 Ki.

Each structure is given as a SMILES string. Counter-ions that a name gives are not always drawn. Like-named read-outs stand apart in the source and are kept apart here. Bounds are passed on as bounds.

In the case of `O=c1ccc2ccc(CN3CCN(c4cccc([N+](=O)[O-])c4)CC3)cc2o1` [Example 14, 7-[4-(3-Nitro-phenyl)-piperazin-1-ylmethyl]-chromen-2-one], the Ki in experiment [1] (setting [3]) turned out to be 5880 nM; in experiment [2] (read-out: D4 Ki), 26 nM.

For `O=c1ccc2ccc(CN3CCN(c4ccccc4)CC3)cc2o1` [Example 13, 7-(4-Phenyl-piperazin-1-ylmethyl)-chromen-2-one], the Ki in experiment [1] (setting [3]) came out at 5340 nM; in experiment [2] (D4 Ki), 26 nM.

Take `Cc1ccccc1N1CCN(Cc2ccc3ccc(=O)oc3c2)CC1` [Example 4, 7-(4-o-Tolyl-piperazin-1-ylmethyl)-chromen-2-one]: the Ki in experiment [1] (setting [3]) is 1940 nM; in experiment [2] (D4 Ki), 16.3 nM.

Consider `Cc1ccc(N2CCN(Cc3ccc4ccc(=O)oc4c3)CC2)cc1C` [Example 3, 7-[4-(3,4-Dimethyl-phenyl)-piperazin-1-ylmethyl]-chromen-2-one], for which the Ki turned out to be 433 nM in experiment [1] (setting [3]) and 13.9 nM in experiment [2] (D4 Ki).

For `O=c1ccc2cc(CN3CCN(c4ccc(CO)c(F)c4)CC3)ccc2o1` [Example 40, 6-[4-(3-Fluoro-4-hydroxymethyl-phenyl)-piperazin-1-ylmethyl]-chromen-2-one], the Ki in experiment [1] (setting [3]) is greater than 5880 nM; in experiment [2] (read-out: D4 Ki), 18 nM.

On to `O=c1ccc2ccc(CN3CCN(c4cccc(Cl)c4)CC3)cc2o1` [Example 9, 7-[4-(3-Chloro-phenyl)-piperazin-1-ylmethyl]-chromen-2-one], for which the Ki in experiment [1] (setting [3]) was greater than 10000 nM; in experiment [2] (read-out: D4 Ki) it was 23 nM.

Turning to `O=c1ccc2cc(CN3CCN(c4cccc(Cl)c4Cl)CC3)ccc2o1` [Example 39, 6-[4-(2,3-Dichloro-phenyl)-piperazin-1-ylmethyl]-chromen-2-one], the results for the Ki in experiment [1] (setting [3]) and in experiment [2] (read-out: D4 Ki) were 1200 nM and 15 nM, respectively.

Turning to `O=c1ccc2ccc(CN3CCN(c4ccccc4Cl)CC3)cc2o1` [Example 5, 7-[4-(2-Chloro-phenyl)-piperazin-1-ylmethyl]-chromen-2-one], the Ki in experiment [1] (setting [3]) was 635 nM; in experiment [2] (read-out: D4 Ki), 16.8 nM.

Regarding `O=c1ccc2ccc(CN3CCN(c4cccc(C(F)(F)F)c4)CC3)cc2o1` [Example 10, 7-[4-(3-Trifluoromethyl-phenyl)-piperazin-1-ylmethyl]-chromen-2-one], the inhibitory constant (Ki) in experiment [1] (setting [3]) stood at 5880 nM; in experiment [2] (read-out: D4 Ki), 24 nM.

In the case of `Cc1ccc(N2CCN(Cc3ccc4ccc(=O)oc4c3)CC2)cc1Cl` [Example 1, 7-[4-(3-Chloro-4-methyl-phenyl)-piperazin-1-ylmethyl]-chromen-2-one], the Ki in experiment [1] was greater than 5880 nM; in experiment [2] (D4 Ki) it was 6.9 nM.

Turning to `O=c1ccc2cc(CN3CCN(c4ccc(CO)c(Br)c4)CC3)ccc2o1` [Example 37, 6-[4-(3-Bromo-4-hydroxymethyl-phenyl)-piperazin-1-ylmethyl]-chromen-2-one], the values for the Ki in experiment [1] (setting [3]) and in experiment [2] (read-out: D4 Ki) were 2980 nM and 12.6 nM, respectively.

Regarding `O=Cc1ccc(N2CCN(Cc3ccc4ccc(=O)oc4c3)CC2)cc1Cl` [Example 11, 2-Chloro-4-[4-(2-oxo-2H-chromen-7-ylmethyl)-piperazin-1-yl]-benzaldehyde], the Ki was greater than 5880 nM in experiment [1] (setting [3]) and 24.6 nM in experiment [2] (read-out: D4 Ki).

As to `O=c1ccc2ccc(CN3CCN(c4ccc(CO)c(Cl)c4)CC3)cc2o1` [Example 2, 7-[4-(3-Chloro-4-hydroxymethyl-phenyl)-piperazin-1-ylmethyl]-chromen-2-one], the figures for the Ki in experiment [1] (setting [3]) and in experiment [2] (read-out: D4 Ki) were 10600 nM and 11 nM, respectively.

In the case of `O=c1ccc2cc(CN3CCN(c4ccccc4Cl)CC3)ccc2o1` [Example 43, 6-[4-(2-Chloro-phenyl)-piperazin-1-ylmethyl]-chromen-2-one], the Ki came out at 218 nM in experiment [1] (setting [3]) and 28 nM in experiment [2] (read-out: D4 Ki).

Consider `O=c1ccc2ccc(CN3CCN(c4ccccn4)CC3)cc2o1` [Example 25, 2H-1-Benzopyran-2-one, 7-[[4-(2-pyridinyl)-1-piperazinyl]methyl]-, dihydrochloride], for which the Ki is greater than 5880 nM in experiment [1] (setting [3]) and 68.2 nM in experiment [2] (read-out: D4 Ki).

In the case of `Cc1ccc(N2CCN(Cc3ccc4oc(=O)ccc4c3)CC2)cc1` [Example 36, 6-(4-p-Tolyl-piperazin-1-ylmethyl)-chromen-2-one], the Ki in experiment [1] (setting [3]) was found to be 5830 nM; in experiment [2] (D4 Ki), 10.9 nM.

On to `O=c1ccc2cc(CN3CCN(c4cccc(Cl)c4)CC3)ccc2o1` [Example 41, 6-[4-(3-Chloro-phenyl)-piperazin-1-ylmethyl]-chromen-2-one], for which the Ki came out at 3320 nM in experiment [1] (setting [3]) and 19.4 nM in experiment [2] (read-out: D4 Ki).

For the molecule `Cc1cccc(N2CCN(Cc3ccc4ccc(=O)oc4c3)CC2)c1C` [Example 8, 7-[4-(2,3-Dimethyl-phenyl)-piperazin-1-ylmethyl]-chromen-2-one], the Ki in experiment [1] (setting [3]) was found to be 688 nM; in experiment [2] (read-out: D4 Ki), 19 nM.

For the origin of these results see patent US5922719A, “Coumarin dopamine D4 receptor antagonists” (priority 1997, dated 1999).
